Test results reported in US20100168112A1, “2-Substituted and 4-substituted aryl nitrone compounds” (RENOVIS, INC., priority 2004, published 2010).
Read-outs that look alike come from different tables or passages of the source.

Legend:
[1] = Pharmacokinetic evaluation following intravenous and oral administration in rats; assay type: in vivo; conditions: male, Sprague-Dawley; for Cmax / Tmax / bioavailability: 5 mg/kg; for Cmax: rat plasma; for Cmax / Tmax: oral gavage, 2 mg/mL at 2.5 mL/kg; for clearance / Vd / Tmax / bioavailability / half-life: plasma, rat; for clearance / Vd / half-life: 1 mg/kg; for clearance / Vd: intravenous administration, 1 mg/mL at 1.0 mL/kg; for clearance: read-out: CI (clearance) (converted); for Vd: read-out: Vd (volume of distribution); for bioavailability: po 2 mg/mL at 2.5 mL/kg vs iv 1 mg/mL at 1.0 mL/kg, dose-normalized, read-out: F (%) oral bioavailability; for half-life: intravenous, read-out: T1/2 elimination half life (converted)
How it was run: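 Male Sprague-Dawley rats, fasted, dosed iv (1 mg/mL formulation, 1.0 mL/kg, jugular or tail vein) or by oral gavage (2 mg/mL suspension, 2.5 mL/kg). Plasma sampled from 2 min to 480 min, some to 24 h, and quantified by LC-MS/MS (MRM). Parameters from noncompartmental analysis.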

[2] = Solubility measurement at pH 7.4; assay type: physicochemical; conditions: aqueous buffer, thermodynamic from solid, phosphate buffer pH 7.4, room temperature
Procedure: Nitrone compounds (>3 mg) of this invention were mixed with a phosphate buffer at pH 7.4 to make a >0.3 mg/mL mixture. The mixture was vortexed for more than 2 hours and equilibrated over 12 hours at room temperature. The equilibrated mixture was used to saturate a 0.45 μm Tuffryn syringe filter. After saturating, the remainder of the mixture was filtered through the saturated filter. The filtrate was diluted by 1, 10, 100, and 1000 fold and analyzed using a LC/MS/MS method with standard curve ranging from 1 to 1000 ng/mL.

[3] = Microsomal stability in rat liver microsomes; assay type: in vitro ADME; conditions: rat liver microsomes 0.5 mg/ml, 1 mM NADPH, ~500 ng/ml compound, 37° C.
Procedure: Frozen Sprague-Dawley rat liver microsomes (RLM) were thawed on ice and gently mixed before use. The final reaction mixture consisted of a nitrone compound of this invention (at ˜500 ng/ml), 1 mM NADPH, and 0.5 mg/ml of RLM protein in 0.1 M PBS (pH7.4), with organic solvent concentration not exceeding 1% (v/v). Per set of incubations, a positive control compound was included. The mixture was first pre-incubated 3 to 5 minutes at 37° C. without NADPH, and the reaction was then initialized by the addition of NADPH and incubated at 37° C. for up to 30 minutes. An aliquot of the reaction mixture was sampled at the initiation of the reaction and at designated time after reaction started. The drawn samples were quenched with acetonitrile, diluted with mobile phase to ensure the detection of test article in the linear range, and analyzed by LC/MS/MS. Half-life or percentage of remaining nitrone compound was calculated using standard methods. A similar method, or a slight variation of it, was used to test the stability of nitrones in human liver microsomes (HLM).

[4] = DPPH free radical-scavenging/antioxidant assay; assay type: biochemical; conditions: 50 μM DPPH in 80% methanol; 24 h time point; read-out: EC50 (concentration at which a compound reduces by 50% the peak absorbance of DPPH at 520 nm)
How it was run: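 Compounds diluted 100-fold from DMSO stocks into 50 μM DPPH in 80% methanol; absorbance at 520 nm followed kinetically to steady state, with the 24 h reading used. EC50 interpolated from OD520 versus concentration; Trolox, BHA, PBN and S-PBN as positive controls, DMSO as vehicle.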

[5] = Microsomal stability in human liver microsomes; assay type: in vitro ADME; conditions: NADPH, 37° C.
How it was run: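 Compound (~500 ng/ml) incubated at 37°C for up to 30 min with 0.5 mg/ml microsomal protein and 1 mM NADPH in 0.1 M PBS pH7.4, after 3–5 min preincubation without NADPH. Sprague-Dawley rat or human microsomes; acetonitrile-quenched timepoints analysed by LC/MS/MS for half-life or percent remaining.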

[6] = Plasma protein binding (equilibrium dialysis), rat plasma; assay type: in vitro ADME; conditions: 1 μg/mL in plasma, dialysis vs phosphate buffer pH 7.4 overnight at 37° C., read-out: Plasma Protein Binding % Bound Rat (converted)
Procedure: (§1) Nitrone compounds of this invention were individually dissolved in DMSO to make a stock solution of 1 mg/mL. The compound was spiked into plasma to achieve a final concentration of 1 μg/mL. Spiked plasma and phosphate buffer (0.1M, pH 7.4), 200 μl each, were added to the opposite sides of the membrane in a 96-well equilibrium dialyzer. The dialyzer plate was then covered and equilibrated overnight at 37° C. on an orbital shaker. Aliquots were taken from the plasma and the buffer compartments and prepared by adding blank plasma to samples from the buffer compartments and drug-free phosphate buffer to samples from the plasma compartments to eliminate the matrix effects. The samples were extracted using protein precipitation procedure by adding CH3CN. The samples were analyzed using a LC/MS/MS method. The percentage of free and bound nitrone compound were calculated according to the following formula:
(§2) %Free=[Free Drug/Total Drug]*100=[(Peak Area)buffer/(Peak Area)serum]*100%Bound=100%Free

[7] = Plasma protein binding (equilibrium dialysis), human plasma; assay type: in vitro ADME; conditions: 1 μg/mL in plasma, dialysis vs phosphate buffer pH 7.4 overnight at 37° C., read-out: Plasma Protein Binding % Bound Human (converted)
Procedure: as §1, §2

[8] = read-out: Solubility @ pH 7.4 (μg/mL)

SMILES | Cmax [1] [ng/mL] | clearance [1] [mL/min/kg] | Vd [1] [L/kg] | Tmax [1] [min] | bioavailability [1] [%] | half-life [1] [min] | solubility ([2]; read-out: Solubility @ pH 7.4) [µM] | solubility [2, 8] [µg/mL] | % of Nitrone Remaining at 30 min (Rat) [3] [%] | EC50 [4] [mM] | % of Nitrone Remaining at 30 min (Human) [5] [%] | fraction unbound at 1 μg/mL [6] | fraction unbound at 1 μg/mL [7]
CC(C)(C)/[N+]([O-])=C/c1ccc(C(=O)O)cc1 [Compound 13, N-tert-Butyl-C-(4-carboxy-phenyl)nitrone] | 5580 | 12.8 | 0.41 | 19.8 | 64.7 | 22.2 | 9040 | 2000 | 100 |  |  |  | 
CC(C)(C)NC(=O)c1ccc(/C=[N+](\[O-])C(C)(C)C)cc1 [Compound 18, N-(tert-Butyl)-C-[4-(N-tert-butylcarbamoyl)phenyl]nitrone] | 2240 | 21.5 | 0.62 | 25.2 | 75.1 | 19.8 | 1360 | 376 | 100 |  |  |  | 
CC(C)(C)/[N+]([O-])=C/c1ccc(C(N)=O)cc1 [Compound 19] | 3000 | 2.33 | 0.74 | 19.8 | 39.5 | 218 | 14200 | 3130 | 100 |  |  |  | 
CCN(CC)S(=O)(=O)c1ccccc1/C=[N+](\[O-])C(C)(C)C [Compound 30, N-tert-Butyl-C-(2-diethylsulfamoylphenyl)nitrone] | 40 | 93.8 | 4.15 | 4.98 | 1.7 | 30.6 | 2530 | 791 | 7.4 | > 1 |  |  | 
CCN(CC)S(=O)(=O)c1ccccc1/C=[N+](\[O-])C1CCCCC1 [Compound 31, N-Cyclohexyl-C-(2-diethylsulfamoylphenyl)nitrone] |  |  |  |  |  |  | 2890 | 978 | 0 | > 1 |  |  | 
CCN(CC)S(=O)(=O)c1ccccc1/C=[N+](\[O-])Cc1ccccc1 [Compound 32, N-Benzyl-C-(2-diethylsulfamoylphenyl)nitrone] |  |  |  |  |  |  |  |  | 0 | > 1 |  |  | 
CC(C)(C)/[N+]([O-])=C/c1ccccc1S(=O)(=O)N1CCCCC1 [Compound 33, N-tert-Butyl-C-[2-(piperidine-1-sulfonyl)phenyl]nitrone] | 10 | 36.2 | 1.66 | 4.98 | 0.1 | 32.4 | > 3330 | > 1080 | 0.3 | > 1 |  |  | 
O=S(=O)(c1ccccc1/C=[N+](\[O-])C1CCCCC1)N1CCCCC1 [Compound 34, N-Cyclohexyl-C-[2-(piperidine-1-sulfonyl)phenyl]nitrone] |  |  |  |  |  |  | 1420 | 500 | 0 | > 1 |  |  | 
O=S(=O)(c1ccccc1/C=[N+](\[O-])Cc1ccccc1)N1CCCCC1 [Compound 35, N-Benzyl-C-[2-(piperidine-1-sulfonyl)phenyl]nitrone] |  |  |  |  |  |  | 107 | 38.4 | 0 | > 1 |  |  | 
CC(C)S(=O)(=O)c1ccc(/C=[N+](\[O-])C(C)(C)C)c(S(=O)(=O)C(C)C)c1 [Compound 65, N-tert-Butyl-C-(2,4-bis-2-propanesulfonylphenyl)nitrone] | 339 | 31.5 | 0.98 | 14.4 | 13.7 | 21 |  |  | 78 | 0.5 to 1 | 94 |  | 
CCS(=O)(=O)c1ccc(/C=[N+](\[O-])C(C)(C)C)cc1 [Compound 67, N-tert-Butyl-C-(4-ethanesulfonylphenyl)nitrone] | 4760 | 1.17 | 0.42 | 79.8 | 46.4 | 266 |  |  |  | > 1 |  | 0.78 | 0.864
CCS(=O)(=O)c1ccccc1/C=[N+](\[O-])C(C)(C)C [Compound 68, N-tert-Butyl-C-(2-ethanesulfonylphenyl)nitrone] | 2110 | 7.83 | 0.63 | 59.4 | 36.4 | 55.8 |  |  |  | 0.5 to 1 |  | 0.783 | 0.781
CC(C)S(=O)(=O)c1ccccc1/C=[N+](\[O-])C(C)(C)C [Compound 69, N-tert-Butyl-C-[2-(2-propanesulfonyl)phenyl]nitrone] | 1840 | 14 | 0.76 | 11.4 | 54.9 | 38.4 |  |  |  | > 1 |  | 0.755 | 0.532
CC(C)S(=O)(=O)c1ccc(/C=[N+](\[O-])C(C)(C)C)cc1 [Compound 70, N-tert-Butyl-C-[4-(2-propanesulfonyl)phenyl]nitrone] | 1270 | 20 | 1.07 | 29.4 | 52.2 | 37.2 |  |  |  | > 1 |  | 0.718 | 0.796
CC(C)(C)/[N+]([O-])=C/c1ccc(S(=O)(=O)C2CCCC2)cc1 [Compound 71, N-tert-Butyl-C-[4-(cyclopentanesulfonyl)phenyl]nitrone] | 108 | 31 | 1.66 | 16.8 | 5.87 | 45.6 |  |  |  | > 1 |  | 0.484 | 0.544
CC(C)(C)/[N+]([O-])=C/c1ccc(C(F)(F)F)cc1S(C)(=O)=O [Compound 72, N-tert-Butyl-C-[2-methanesulfonyl-4-trifluoromethylphenyl]nitrone] | 1520 | 11 | 2.69 | 19.2 | 59.8 | 169 |  |  |  | > 1 |  | 0.319 | 0.367
